Reference: patent publication US20120095029A1, “IPP COMPLEX AS MARKER FOR ERLOTINIB TREATMENT” (Hoffmann-La Roche Inc., priority 2010, published 2012)
Counter-ions that a name gives are not always drawn.

What was measured:
[1] = test system: patients with NSCLC; conditions: second line after cisplatin-based first-line regimens failed; ECOG 0, 1 or 2; cited from earlier work
[2] = test system: NSCLC; conditions: second line therapy of NSCLC; cited from earlier work
[3] = target: alpha-parvin (Homo sapiens, UniProt Q9NVD7); conditions: H292 cell lysate preincubated with free compound (0-400 μM), then beads with immobilized compound
Sequence of alpha-parvin (Q9NVD7 2-372 limits assumed): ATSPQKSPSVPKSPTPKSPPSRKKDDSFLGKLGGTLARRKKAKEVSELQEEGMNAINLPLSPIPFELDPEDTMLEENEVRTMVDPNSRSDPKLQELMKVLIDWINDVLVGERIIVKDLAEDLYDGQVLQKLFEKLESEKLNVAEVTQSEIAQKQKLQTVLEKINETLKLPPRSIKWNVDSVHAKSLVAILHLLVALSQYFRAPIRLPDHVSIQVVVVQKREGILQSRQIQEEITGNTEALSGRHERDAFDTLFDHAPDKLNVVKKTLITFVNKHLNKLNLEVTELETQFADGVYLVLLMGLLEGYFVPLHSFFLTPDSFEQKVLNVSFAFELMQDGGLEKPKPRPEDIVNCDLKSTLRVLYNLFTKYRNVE
Sequence of alpha-parvin (Q13418 whole entry partner): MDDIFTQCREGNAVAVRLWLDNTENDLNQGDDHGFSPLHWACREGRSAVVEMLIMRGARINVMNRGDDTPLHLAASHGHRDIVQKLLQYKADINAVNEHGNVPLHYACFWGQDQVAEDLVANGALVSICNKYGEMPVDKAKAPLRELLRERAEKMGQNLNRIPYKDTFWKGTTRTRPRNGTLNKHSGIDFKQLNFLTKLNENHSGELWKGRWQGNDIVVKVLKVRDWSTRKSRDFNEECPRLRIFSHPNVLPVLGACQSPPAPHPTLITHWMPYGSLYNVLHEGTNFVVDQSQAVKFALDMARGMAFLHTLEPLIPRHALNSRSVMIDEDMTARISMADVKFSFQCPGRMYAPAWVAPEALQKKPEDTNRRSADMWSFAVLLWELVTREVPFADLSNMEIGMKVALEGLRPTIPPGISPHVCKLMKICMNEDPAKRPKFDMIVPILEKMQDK
Sequence of alpha-parvin (P48059 2-325 partner limits assumed): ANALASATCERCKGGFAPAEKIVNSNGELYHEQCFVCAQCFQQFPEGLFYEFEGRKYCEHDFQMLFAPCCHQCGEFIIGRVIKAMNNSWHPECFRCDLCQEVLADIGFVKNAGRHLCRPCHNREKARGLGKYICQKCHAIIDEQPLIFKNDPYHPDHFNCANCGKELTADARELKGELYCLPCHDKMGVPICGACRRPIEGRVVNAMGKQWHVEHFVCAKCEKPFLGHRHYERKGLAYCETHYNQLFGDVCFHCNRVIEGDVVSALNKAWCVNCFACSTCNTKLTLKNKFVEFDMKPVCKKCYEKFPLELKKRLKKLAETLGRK

[4] = target: PINCH (Homo sapiens, UniProt P48059); conditions: H292 cell lysate preincubated with free compound (0-400 μM), then beads with immobilized compound
Sequence of PINCH (P48059 2-325): as the sequence (P48059 2-325 partner limits assumed) above
Sequence of PINCH (Q13418 whole entry partner): as the sequence (Q13418 whole entry partner) above
Sequence of PINCH (Q9NVD7 2-372 partner): as the sequence (Q9NVD7 2-372 limits assumed) above

[5] = test system: NSCLC patients; conditions: unselected patient population; cited from earlier work
[6] = test system: H358 cells; test: Testing EMT transition on H358 NSCLC cell line (TGFbeta3 treatment, western blot); format: cell-based, human; conditions: 10 ng/mL TGFbeta3 plus compound 5 μM; for Level of E-cadherin: up to 13 days
Protocol: Cell culture medium was renewed every 3 days. Cell lysis was performed in PBS containing 1% NP-40 and protease inhibitors. After clearing by centrifugation at 12,000 g for 15 min at 4° C., proteins were separated by SDS-PAGE and processed for western blot analysis. Images were acquired using a compact digital camera (Luminescent Image Analyzer: Fujifilm, Tokyo, Japan) and quantified with ImageQuant TL (GE Healthcare, Waukesha, Wis., USA).

[7] = target: ILK (Homo sapiens, UniProt Q13418); conditions: H292 cell lysate preincubated with free compound (0-400 μM), then beads with immobilized compound
Sequence of ILK (Q13418 whole entry): as the sequence (Q13418 whole entry partner) above

[8] = test system: NSCLC patients; conditions: single agent; patients for whom standard therapy for advanced disease has failed; cited from earlier work

CC(=O)O[C@@]12CO[C@@H]1C[C@H](O)[C@@]1(C)C(=O)[C@H](O)C3=C(C)[C@@H](OC(=O)[C@H](O)[C@@H](NC(=O)OC(C)(C)C)c4ccccc4)C[C@@](O)([C@@H](OC(=O)c4ccccc4)[C@H]21)C3(C)C [docetaxel]
Survival [1]: improved survival

Nc1nc2[nH]cc(CCc3ccc(C(=O)N[C@@H](CCC(=O)O)C(=O)O)cc3)c2c(=O)[nH]1 [pemetrexed]
Efficacy compared with docetaxel [2]: clinically equivalent efficacy | Side effects compared with docetaxel [2]: significantly fewer side effects

COc1cc2ncnc(Nc3ccc(F)c(Cl)c3)c2cc1OCCCN1CCOCC1 [Gefitinib, gefitinib]
Signal Reduction (%) alpha-parvin [3]: 0.0% | Signal Reduction (%) PINCH [4]: 0.0% | Clinical benefit [5]: does not seem to confer clinical benefit | ILK expression level [6]: not so pronounced | PINCH expression level [6]: not so pronounced | Level of E-cadherin [6]: fails to inhibit the TGFb3-mediated decrease of E-cadherin levels

C#Cc1cccc(Nc2ncnc3cc(OCCOC)c(OCCOC)cc23)c1 [Erlotinib hydrochloride, erlotinib hydrochloride]
Signal Reduction (%) alpha-parvin [3]: 79.5% | Signal Reduction (%) ILK [7]: 77.3% | Survival of NSCLC patients [8]: significantly prolongs and improves the survival | Signal Reduction (%) PINCH [4]: 87.7% | ILK expression level [6]: do not change | PINCH expression level [6]: do not change | Level of E-cadherin [6]: remained unchanged
